According to patent US9730940B2, “Purine inhibitors of human phosphatidylinositol 3-kinase delta” (priority 2012, dated 2017):

Each compound was assayed against PI3K-alpha (Homo sapiens (Human), UniProt P42336) (assay: HTRF PI3K biochemical assay, alpha isoform). Conditions: ratio PI3K-alpha IC50 value/PI3K-delta IC50 value.
Sequence of PI3K-alpha (P42336 whole entry, looked up, canonical isoform): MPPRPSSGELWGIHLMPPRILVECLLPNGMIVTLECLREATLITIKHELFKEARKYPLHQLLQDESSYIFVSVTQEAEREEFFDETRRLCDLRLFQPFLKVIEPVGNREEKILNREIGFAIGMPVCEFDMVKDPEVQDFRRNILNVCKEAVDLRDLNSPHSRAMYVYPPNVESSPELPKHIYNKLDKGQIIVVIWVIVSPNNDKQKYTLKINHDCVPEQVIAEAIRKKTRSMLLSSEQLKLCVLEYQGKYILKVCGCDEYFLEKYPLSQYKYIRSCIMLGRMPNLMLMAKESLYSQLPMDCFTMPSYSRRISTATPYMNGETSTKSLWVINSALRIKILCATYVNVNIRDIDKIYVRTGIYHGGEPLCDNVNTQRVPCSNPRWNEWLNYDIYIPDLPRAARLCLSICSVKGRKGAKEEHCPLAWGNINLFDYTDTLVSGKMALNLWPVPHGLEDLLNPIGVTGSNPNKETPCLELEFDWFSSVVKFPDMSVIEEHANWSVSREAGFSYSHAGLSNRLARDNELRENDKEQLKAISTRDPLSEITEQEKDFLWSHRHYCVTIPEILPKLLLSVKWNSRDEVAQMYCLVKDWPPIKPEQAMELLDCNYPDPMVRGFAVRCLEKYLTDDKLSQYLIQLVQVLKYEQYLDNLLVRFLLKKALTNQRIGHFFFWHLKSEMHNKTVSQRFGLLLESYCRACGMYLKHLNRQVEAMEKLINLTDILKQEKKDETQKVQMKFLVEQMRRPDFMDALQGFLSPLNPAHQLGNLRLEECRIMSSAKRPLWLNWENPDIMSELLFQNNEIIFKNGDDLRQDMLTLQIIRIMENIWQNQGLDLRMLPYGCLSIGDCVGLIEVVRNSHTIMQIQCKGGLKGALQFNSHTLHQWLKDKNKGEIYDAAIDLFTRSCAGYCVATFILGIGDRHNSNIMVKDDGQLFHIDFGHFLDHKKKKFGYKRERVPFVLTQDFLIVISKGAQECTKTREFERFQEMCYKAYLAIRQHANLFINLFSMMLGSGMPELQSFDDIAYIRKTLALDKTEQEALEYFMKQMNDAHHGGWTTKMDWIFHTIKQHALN
Sequence of PI3K-alpha (P27986 whole entry partner, looked up, canonical isoform): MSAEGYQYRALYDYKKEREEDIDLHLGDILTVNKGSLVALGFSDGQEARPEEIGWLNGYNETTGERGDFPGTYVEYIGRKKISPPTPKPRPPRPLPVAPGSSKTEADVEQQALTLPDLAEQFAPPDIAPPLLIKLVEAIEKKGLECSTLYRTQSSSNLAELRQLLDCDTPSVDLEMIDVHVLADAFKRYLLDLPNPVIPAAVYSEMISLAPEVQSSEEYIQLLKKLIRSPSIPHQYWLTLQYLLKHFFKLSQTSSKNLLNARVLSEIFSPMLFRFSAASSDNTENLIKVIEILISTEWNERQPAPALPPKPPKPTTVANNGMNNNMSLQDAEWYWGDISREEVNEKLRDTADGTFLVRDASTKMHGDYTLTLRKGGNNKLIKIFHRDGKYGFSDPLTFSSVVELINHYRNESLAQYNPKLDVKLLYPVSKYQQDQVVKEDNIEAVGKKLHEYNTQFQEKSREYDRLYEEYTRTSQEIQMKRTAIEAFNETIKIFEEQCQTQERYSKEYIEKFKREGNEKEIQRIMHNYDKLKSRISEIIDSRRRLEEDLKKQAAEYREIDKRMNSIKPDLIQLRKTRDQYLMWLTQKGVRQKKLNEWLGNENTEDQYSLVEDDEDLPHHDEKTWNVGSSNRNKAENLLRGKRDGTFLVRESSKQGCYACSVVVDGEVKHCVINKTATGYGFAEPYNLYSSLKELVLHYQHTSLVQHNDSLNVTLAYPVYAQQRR

Compound | Relative Selectivity versus PI3Kalpha
CCN(C)C(=O)N1CC[C@H](Oc2ncnc3c2nc(-c2cnc(C)nc2)n3CC)C1 [Compound 5-9, (3S)-N-ethyl-3-{[9-ethyl-8-(2-methylpyrimidin-5-yl)-9H-purin-6-yl]oxy}-N-methylpyrrolidine-1-carboxamide] | >10
CCn1c(-c2cnc(C)nc2)nc2c(O[C@H]3CCN(C(=O)N(C)C4CC4)C3)ncnc21 [Compound 5-10, (3S)-N-cyclopropyl-3-{[9-ethyl-8-(2-methylpyrimidin-5-yl)-9H-purin-6-yl]oxy}-N-methylpyrrolidine-1-carboxamide] | >10
CCn1c(-c2cnc(C)nc2)nc2c(O[C@H]3CCN(C(=O)N4CCC4)C3)ncnc21 [Compound 5-11, 6-{[(3S)-1-(azetidin-1-ylcarbonyl)pyrrolidin-3-yl]oxy}-9-ethyl-8-(2-methylpyrimidin-5-yl)-9H-purine] | >10
CCn1c(-c2cnc(C)nc2)nc2c(OC3CCN(C(=O)N(C)c4ccccc4)CC3)ncnc21 [Compound 5-12, 4-{[9-ethyl-8-(2-methylpyrimidin-5-yl)-9H-purin-6-yl]oxy}-N-methyl-N-phenylpiperidine-1-carboxamide] | >10
CCn1c(-c2cnc(C)nc2)nc2c(O[C@H]3CCN(C(=O)N4CC(OC)C4)C3)ncnc21 [Compound 5-13, 9-ethyl-6-({(3S)-1-[(3-methoxyazetidin-1-yl)carbonyl]pyrrolidin-3-yl}oxy)-8-(2-methylpyrimidin-5-yl)-9H-purine] | >10
CCn1c(-c2cnc(C)nc2)nc2c(O[C@H]3CCN(C(=O)N4CC(F)(F)C4)C3)ncnc21 [Compound 5-14, 6-{[(3S)-1-[(3,3-difluoroazetidin-1-yl)carbonyl]pyrrolidin-3-yl}oxy)-9-ethyl-8-(2-methylpyrimidin-5-yl)-9H-purine] | >10
CCn1c(-c2cnc(C)nc2)nc2c(O[C@H]3CCN(C(=O)N(C)c4ccccc4)C3)ncnc21 [Compound 5-17, (3S)-3-{[9-ethyl-8-(2-methylpyrimidin-5-yl)-9H-purin-6-yl]oxy}-N-methyl-N-phenylpyrrolidine-1-carboxamide] | >10
CCn1c(-c2cnc(C)nc2)nc2c(O[C@H]3CCN(C(=O)N4CCC(CO)C4)C3)ncnc21 (stereo partly drawn) [Compound 5-18, (1-{[(3S)-3-{[9-ethyl-8-(2-methylpyrimidin-5-yl)-9H-purin-6-yl]oxy}pyrrolidin-1-yl]carbonyl}pyrrolidin-3-yl)methanol] | >10
CCn1c(-c2cnc(C)nc2)nc2c(O[C@H]3CCN(C(=O)N4CCC(C)(C)C4)C3)ncnc21 [Compound 5-19, 6-({(3S)-1-[(3,3-dimethylpyrrolidin-1-yl)carbonyl]pyrrolidin-3-yl}oxy)-9-ethyl-8-(2-methylpyrimidin-5-yl)-9H-purine] | >10
CCn1c(-c2cnc(C)nc2)nc2c(O[C@H]3CCN(C(=O)N4CCC(C)(O)C4)C3)ncnc21 (stereo partly drawn) [Compound 5-20, 1-{[(3S)-3-{[9-ethyl-8-(2-methylpyrimidin-5-yl)-9H-purin-6-yl]oxy}pyrrolidin-1-yl]carbonyl}-3-methylpyrrolidin-3-ol] | >10
CCn1c(-c2cnc(C)nc2)nc2c(O[C@H]3CCN(C(=O)N4CC(C)(OC)C4)C3)ncnc21 [Compound 5-21, 9-ethyl-6-({(3S)-1-[(3-methoxy-3-methylazetidin-1-yl)carbonyl]pyrrolidin-3-yl}oxy)-8-(2-methylpyrimidin-5-yl)-9H-purine] | >10
CCn1c(-c2cnc(C)nc2)nc2c(O[C@H]3CCN(C(=O)N4CC5CC5C4)C3)ncnc21 (stereo partly drawn) [Compound 5-22, 6-{[(3S)-1-(3-azabicyclo[3.1.0]hex-3-ylcarbonyl)pyrrolidin-3-yl]oxy}-9-ethyl-8-(2-methylpyrimidin-5-yl)-9H-purine] | >10
CCn1c(-c2cnc(C)nc2)nc2c(O[C@H]3CCN(C(=O)N4CCCCC4)C3)ncnc21 [Compound 5-23, 9-ethyl-8-(2-methylpyrimidin-5-yl)-6-{[(3S)-1-(piperidin-1-ylcarbonyl)pyrrolidin-3-yl]oxy}-9H-purine] | >10
CCn1c(-c2cnc(C)nc2)nc2c(O[C@H]3CCN(C(=O)N4C5CCC4CC5)C3)ncnc21 [Compound 5-24] | >10
CCn1c(-c2cnc(C)nc2)nc2c(O[C@H]3CCN(C(=O)N4CC(O)C4)C3)ncnc21 [Compound 5-25, 1-{[(3S)-3-{[9-ethyl-8-(2-methylpyrimidin-5-yl)-9H-purin-6-yl]oxy}pyrrolidin-1-yl]carbonyl}azetidin-3-ol] | >10
CCn1c(-c2cnc(C)nc2)nc2c(O[C@H]3CCN(C(=O)N4CCC(F)(F)C4)C3)ncnc21 [Compound 5-26, 6-({(3S)-1-[(3,3-difluoropyrrolidin-1-yl)carbonyl]pyrrolidin-3-yl}oxy)-9-ethyl-8-(2-methylpyrimidin-5-yl)-9H-purine] | >10

Compound | Relative Selectivity versus PI3Kalpha
CCn1c(-c2cnc(C)nc2)nc2c(O[C@H]3CCN(C(=O)N4CC(F)C4)C3)ncnc21 [Compound 5-27, 9-ethyl-6-({(3S)-1-[(3-fluoroazetidin-1-yl)carbonyl]pyrrolidin-3-yl}oxy)-8-(2-methylpyrimidin-5-yl)-9H-purine] | >10
CCn1c(-c2ccc(C(F)(F)F)nc2)nc2c(O[C@H]3CCN(C(=O)N4CC(OC)C4)C3)ncnc21 [Compound 5-28, (S)-(3-((9-ethyl-8-(6-(trifluoromethyl)pyridin-3-yl)-9H-purin-6-yl)oxy)pyrrolidin-1-yl)(3-methoxyazetidin-1-yl)methanone] | >10
CCn1ncc(-c2nc3c(O[C@H]4CCN(C(C)c5ccccc5)C4)ncnc3n2C)c1C (stereo partly drawn) [Compound 6-1, 8-(1-ethyl-5-methyl-1H-pyrazol-4-yl)-9-methyl-6-{[(3S)-1-(1-phenylethyl)pyrrolidin-3-yl]oxy}-9H-purine] | >10
CCn1ncc(-c2nc3c(O[C@H]4CCN(CC5CCCCC5)C4)ncnc3n2C)c1C [Compound 6-2, 6-{[(3S)-1-(cyclohexylmethyl)pyrrolidin-3-yl]oxy}-8-(1-ethyl-5-methyl-1H-pyrazol-4-yl)-9-methyl-9H-purine] | >10
CCCN1CC[C@H](Oc2ncnc3c2nc(-c2cnn(CC)c2C)n3C)C1 [Compound 6-5, (S)-8-(1-ethyl-5-methyl-1H-pyrazol-4-yl)-9-methyl-6-((1-propylpyrrolidin-3-yl)oxy)-9H-purine] | >10
CCn1c(-c2cnc(C)nc2)nc2c(OC3CN(Cc4ccccc4)CC3(C)C)ncnc21 (stereo not shown) [Compound 6-6, 6-((1-benzyl-4,4-dimethylpyrrolidin-3-yl)oxy)-9-ethyl-8-(2-methylpyrimidin-5-yl)-9H-purine] | >10
CCn1ncc(-c2nc3c(O[C@H]4CCN(c5ncccn5)C4)ncnc3n2C)c1C [Compound 7-1, 8-(1-ethyl-5-methyl-1H-pyrazol-4-yl)-9-methyl-6-{[(3S)-1-pyrimidin-2-ylpyrrolidin-3-yl]oxy}-9H-purine] | >10
CCn1ncc(-c2nc3c(O[C@H]4CCN(c5ncnc6sc(C)cc56)C4)ncnc3n2C)c1C [Compound 7-2, 8-(1-ethyl-5-methyl-1H-pyrazol-4-yl)-9-methyl-6-{[(3S)-1-(6-methylthieno[2,3-d]pyrimidin-4-yl)pyrrolidin-3-yl]oxy}-9H-purine] | >10
CCn1ncc(-c2nc3c(O[C@H]4CCN(c5nccc6sccc56)C4)ncnc3n2C)c1C [Compound 7-3, 8-(1-ethyl-5-methyl-1H-pyrazol-4-yl)-9-methyl-6-{[(3S)-1-thieno[3,2-c]pyridin-4-ylpyrrolidin-3-yl]oxy}-9H-purine] | >10
CCn1ncc(-c2nc3c(O[C@H]4CCN(c5ncnc6ccsc56)C4)ncnc3n2C)c1C [Compound 7-4, 8-(1-ethyl-5-methyl-1H-pyrazol-4-yl)-9-methyl-6-{[(3S)-1-thieno[3,2-d]pyrimidin-4-ylpyrrolidin-3-yl]oxy}-9H-purine] | >10
CCn1ncc(-c2nc3c(O[C@H]4CCN(c5cc(C(F)(F)F)ccn5)C4)ncnc3n2C)c1C [Compound 7-5, 8-(1-ethyl-5-methyl-1H-pyrazol-4-yl)-9-methyl-6-({(3S)-1-[4-(trifluoromethyl)pyridin-2-yl]pyrrolidin-3-yl}oxy)-9H-purine] | >10
CCn1ncc(-c2nc3c(O[C@H]4CCN(c5nccn6cnnc56)C4)ncnc3n2C)c1C [Compound 7-6, 8-[(3S)-3-{[8-(1-ethyl-5-methyl-1H-pyrazol-4-yl)-9-methyl-9H-purin-6-yl]oxy}pyrrolidin-1-yl][1,2,4]triazolo[4,3-a]pyrazine] | >10
CCn1ncc(-c2nc3c(O[C@H]4CCN(c5ccccn5)C4)ncnc3n2C)c1C [Compound 7-7, 8-(1-ethyl-5-methyl-1H-pyrazol-4-yl)-9-methyl-6-{[(3S)-1-pyridin-2-ylpyrrolidin-3-yl]oxy}-9H-purine] | >10
CCn1ncc(-c2nc3c(O[C@H]4CCN(c5nncc6ccccc56)C4)ncnc3n2C)c1C [Compound 7-8, 1-[(3S)-3-{[8-(1-ethyl-5-methyl-1H-pyrazol-4-yl)-9-methyl-9H-purin-6-yl]oxy}pyrrolidin-1-yl]phthalazine] | >10
CCn1ncc(-c2nc3c(O[C@H]4CCN(c5cc(-n6cc(C)cn6)ncn5)C4)ncnc3n2C)c1C [Compound 7-9, 8-(1-ethyl-5-methyl-1H-pyrazol-4-yl)-9-methyl-6-({(3S)-1-[6-(4-methyl-1H-pyrazol-1-yl)pyrimidin-4-yl]pyrrolidin-3-yl}oxy)-9H-purine] | >10
